The values that follow come from patent US7501512B2, “Chemical compounds” (SmithKline Beecham Corporation, priority 2003, dated 2009).

In assay [1] the target is MAPKAP2 kinase (MK2) (Homo sapiens, UniProt P49137). Kind of assay: MAPKAP2 kinase (MK2) enzyme assay. The class given is biochemical. Particulars: 1 nM recombinant MK2, 1 μM ATP, 1 μM peptide substrate; read-out: pIC50 values (converted). How it is done: Compounds are tested for MAPKAP2 kinase (MK2) inhibitory activity in an assay that measures the MK2 catalyzed transfer of the γ-phosphate from ATP to serine/threonine residues of a biotinylated peptide [NH2-K(biotin)-KLNRTLSVA (SynPep Corporation, USA)]. Compounds under analysis are dissolved in DMSO to 1 mM and serially diluted 3-fold with DMSO in 96 or 384-well polypropylene or polystyrene plates for a total of 10-12 different concentrations. One uL of each concentration is transferred to the corresponding well of a 96 or 384-well, white, polystyrene assay plate. Reactions are performed in a final volume of 26 uL. An ATP solution (10 uL) is added to each well, and the reaction is initiated by the addition of a MK2/peptide mix (15 uL). The ATP solution is made in H2O and consists of 2.6 μM nonradioactive ATP (SigmaUltra) and 6.5 uCi/mL [γ-^33P]-ATP (Amersham Pharmacia Biotech). The MK2/peptide mix consists of 86.7 mM HEPES (SigmaUltra), pH 7.5, 8.67 mM MgCl2 (SigmaUltra), 0.0043% Tween 20, 1.73 mM dithiothreitol (added fresh from frozen 1M stock), 1.73 μM peptide, and 1.73 nM purified recombinant MK2. Final concentrations of the assay components are 50 mM HEPES, pH 7.5, 5 mM MgCl2, 0.0025% Tween 20, 1 mM dithiothreitol, 1 μM ATP, 2.5 μCi/mL [γ-^33P]-ATP, 1 μM peptide substrate, and 1 nM MK2. The reaction is allowed to proceed for 40 minutes and is then terminated by the addition of ‘stop solution’ (20 uL), followed by the addition of ‘bead mix’ (50 uL). […] The plates are allowed to sit for approximately 8 hours and then are quantitated using a TopCount NXF™ (Packard). Alternatively, the plates are allowed to sit for at least approximately 1 hour, centrifuged at 900 rpm for 3 minutes, and then quantitated using a TopCount NXT™ (Packard). […] Percent inhibition of MK2 activity is calculated for each compound concentration using Equation [1] […]
[formula] where Y2 is the baseline percent inhibition, Vmax is the net maximum percent inhibition (baseline subtracted), and K is the IC50. […] The results for each compound are recorded as pIC50, calculated using Equation [3]. pIC50=−log10([…]) (3)

For assay [2], the target named is T1, hYAK3 (Homo sapiens, UniProt O43781).
T1 construct: made in house; host or cells: baculovirus expression system in Sf9 cells
T1 sequence (O43781 124-526): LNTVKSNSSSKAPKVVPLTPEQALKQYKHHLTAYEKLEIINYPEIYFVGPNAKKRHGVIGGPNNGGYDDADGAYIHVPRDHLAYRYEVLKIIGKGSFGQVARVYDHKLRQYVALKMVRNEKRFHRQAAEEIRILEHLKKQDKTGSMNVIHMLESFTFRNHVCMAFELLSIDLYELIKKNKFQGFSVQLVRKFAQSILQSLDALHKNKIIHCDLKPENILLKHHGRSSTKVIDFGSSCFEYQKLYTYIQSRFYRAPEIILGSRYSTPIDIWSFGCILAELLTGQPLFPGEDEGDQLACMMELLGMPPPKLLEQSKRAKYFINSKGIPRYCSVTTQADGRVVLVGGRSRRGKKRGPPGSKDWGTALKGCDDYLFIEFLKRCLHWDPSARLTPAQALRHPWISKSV
Kind of assay: YAK3 scintillation proximity assay using Ser164 of myelin basic protein as phosphoacceptor. Type of assay: biochemical. The conditions noted are these: purified GST-hYak3-His6, 0.001 mM ATP, 4 μM Ser164 peptide; read-out: pIC50 values (converted). How it is done:
YAK3 Scintillation Proximity Assays Using Ser164 of Myelin Basic Protein as the Phosphoacceptor
The source of Ser164 substrate peptide The biotinylated Ser164, S164A peptide (Biotinyl-LGGRDSRAGS*PMARR-OH), sequence derived from the C-terminus of bovine myelin basic protein (MBP) with Ser162 substituted as Ala162, was purchased from California Peptide Research Inc. (Napa, Calif.), and its purity was determined by HPLC. Phosphorylation occurs at position 164 (marked S* above). The calculated molecular mass of the peptide was 2166 dalton. Solid sample was dissolved at 10 mM in DMSO, aliquoted, and stored at −20° C. until use.
hYAK3: Glutathione-S-Transferase (GST)-hYak3-His6 containing amino acid residues 124-526 of human YAK3 (aa 124-526 of SEQ ID NO 2. in U.S. Pat. No. 6,323,318) was purified from baculovirus expression system in Sf9 cells using Glutathione Sepharose 4B column chromatography followed by Ni-NTA-Agarose column chromatography. Purity greater than 65% typically was achieved. Samples, in 50 mM Tris, 150 mM NaCl, 10% glycerol, 0.1% Triton, 250 mM imidazole, 10 mM β-mercapto ethanol, pH 8.0. were stored at −80° C. until use.
Kinase assay of purified hYAK3: Assays were performed in 96 well (Costar, Catalog No. 3789) or 384 well plates (Costar, Catalog No. 3705). Reaction (in 20, 25, or 40 μl volume) mix contained in final concentrations 25 mM Hepes buffer, pH 7.4; 10 mM MgCl2; 10 mM β-mercapto ethanol; 0.0025% Tween-20; 0.001 mM ATP, 0.1 μCi of [γ-^33P]ATP; purified hYAK3 (7-14 ng/assay; 4 nM final); and 4 μM Ser164 peptide. Compounds, titrated in DMSO, were evaluated at concentrations ranging from 50 μM to 0.5 nM. […] Reactions were incubated for 2 hours at room temperature and were stopped by a 75 ul addition of […] Streptavidin Scintillation Proximity beads (Amersham Pharmacia Biotech, Catalog No. RPNQ 0007) in PBS, pH 7.4, 10 mM EDTA, 0.1% Triton X-100, 1 mM ATP. Under the assay conditions defined above, the Km (apparent) for ATP was determined to be 7.2+/−2.4 μM.
A general note: In a scintillation proximity assay essentially only radioactivity close to the scintillant gives light.

Chain of MAPKAP2 kinase (MK2) (P49137 whole entry, species assumed): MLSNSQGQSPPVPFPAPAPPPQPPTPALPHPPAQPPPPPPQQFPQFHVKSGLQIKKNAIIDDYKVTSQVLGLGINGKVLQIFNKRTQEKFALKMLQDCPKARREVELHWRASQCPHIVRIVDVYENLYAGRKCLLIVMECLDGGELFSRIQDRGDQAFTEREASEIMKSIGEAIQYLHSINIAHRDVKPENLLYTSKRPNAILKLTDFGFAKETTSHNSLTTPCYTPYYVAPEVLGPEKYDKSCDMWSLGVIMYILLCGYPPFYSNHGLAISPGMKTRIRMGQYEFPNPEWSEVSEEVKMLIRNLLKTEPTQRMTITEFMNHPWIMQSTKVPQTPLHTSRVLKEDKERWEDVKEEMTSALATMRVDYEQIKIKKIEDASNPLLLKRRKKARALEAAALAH

As to `COCCN(C)c1cc2n(c(=O)n1)CCc1cc(OC)ccc1-2` [Iy, 9-Methoxy-2-[(2-methoxy-ethyl)-methyl-amino]-6,7-dihydro-pyrimido[6,1-a]isoquinolin-4-one], the IC50 in assay [1] is 10 to 100 nM. `COc1ccc2c(c1)CCn1c-2cc(NCCN(C)C)nc1=O` [Iw, 2-(2-Dimethylamino-ethylamino)-9-methoxy-6,7-dihydro-pyrimido[6,1-a]isoquinolin-4-one]: the IC50 in assay [2] was 10.2 to 100 nM.

For `COc1ccc2c(c1)CCn1c-2cc(Nc2ccccc2Br)nc1=O` [Ie, 2-(2-Bromo-phenylamino)-9-methoxy-6,7-dihydro-pyrimido[6,1-a]isoquinolin-4-one], the IC50 in assay [2] is 102 to 1000 nM. On the same count and under the same terms, the value for `COc1ccc(CNc2cc3n(c(=O)n2)CCc2cc(OC)ccc2-3)cc1` [Iz, 9-Methoxy-2-(4-methoxy-benzylamino)-6,7-dihydro-pyrimido[6,1-a]isoquinolin-4-one] was 102 to 1000 nM. Same read-out and setting: the value for `COc1ccc2c(c1)CCn1c-2cc(Nc2c(OC)cccc2OC)nc1=O` [Ia, 2-(2,6-Dimethoxy-phenylamino)-9-methoxy-6,7-dihydro-pyrimido[6,1-a]isoquinolin-4-one] was 10.2 to 100 nM. Turning to `COc1ccc2c(c1)CCn1c-2cc(Nc2cccc(S(N)(=O)=O)c2)nc1=O` [If, 3-(9-Methoxy-4-oxo-6,7-dihydro-4H-pyrimido[6,1-a]isoquinolin-2-ylamino)-benzenesulfonamide], in assay [1], the IC50 is 102 to 1000 nM.

On to `COc1ccc2c(c1)CCn1c-2cc(NCCN2CCCC2)nc1=O` [Iv, 9-Methoxy-2-(2-pyrrolidin-1-yl-ethylamino)-6,7-dihydro-pyrimido[6,1-a]isoquinolin-4-one], for which, in assay [1], the IC50 is 10 to 100 nM.
